Reference: PubChem BioAssay (NCI)
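A five-concentration, 48-hour dose response in 96-well plates underlies each endpoint, interpolated linearly between surrounding concentrations. At the TGI there is no net growth.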

These molecules were tested on LOX IMVI melanoma (assay: NCI-60 cell line screen, 48 h).

Row | Structure (SMILES) | TGI
1 | O=C1NC(=O)C(CC2CCCCCCCCCCC2=O)C(=O)N1 (stereo not given) | > 100 µM
2 | Nc1ccc(S(=O)(=O)Nc2nccs2)cc1 | > 100 µM
3 | CCOc1ccc(/C=C2/C(=O)N=C(NC(C)=O)N2C)cc1 | > 100 µM

These molecules were tested on SR leukemia (assay: NCI-60 cell line screen, 48 h).

Row | Structure (SMILES) | TGI
4 | Cc1nc2sc3ccccc3n2c(=O)c1N=Nc1ccc(Cl)cc1 | > 100 µM
5 | O=C1O[C@H](c2ccc3c(c2)OCO3)[C@H]2CO[C@@H](c3ccc4c(c3)OCO4)[C@@H]12 | > 100 µM
6 | Cc1ccc2c(c1)C(=O)C1(C2)Cc2cccc(C)c2C1=O (stereo not given) | > 100 µM
7 | O=C1NC(=O)C(CC2CCCCCCCCCCC2=O)C(=O)N1 (stereo not given) | 5.28 µM
8 | Nc1ccc(S(=O)(=O)Nc2nccs2)cc1 | > 100 µM

These molecules were tested on MALME-3M melanoma (assay: NCI-60 cell line screen, 48 h).

Row | Structure (SMILES) | TGI
9 | Cc1nc2sc3ccccc3n2c(=O)c1N=Nc1ccc(Cl)cc1 | > 100 µM
10 | O=C1O[C@H](c2ccc3c(c2)OCO3)[C@H]2CO[C@@H](c3ccc4c(c3)OCO4)[C@@H]12 | > 100 µM
11 | Cc1ccc2c(c1)C(=O)C1(C2)Cc2cccc(C)c2C1=O (stereo not given) | > 100 µM
12 | Cc1cc(NCc2ccccc2)c2ccccc2[n+]1CCCCCCCCCC[n+]1c(C)cc(NCc2ccccc2)c2ccccc21 | > 100 µM
13 | Nc1ccc(S(=O)(=O)Nc2nccs2)cc1 | > 100 µM

Each molecule was assayed on IGROV1 ovarian (assay: NCI-60 cell line screen, 48 h).

Row | Structure (SMILES) | TGI
14 | Cc1nc2sc3ccccc3n2c(=O)c1N=Nc1ccc(Cl)cc1 | > 100 µM
15 | O=C1O[C@H](c2ccc3c(c2)OCO3)[C@H]2CO[C@@H](c3ccc4c(c3)OCO4)[C@@H]12 | > 100 µM
16 | Cc1ccc2c(c1)C(=O)C1(C2)Cc2cccc(C)c2C1=O (stereo not given) | > 100 µM
17 | O=C1NC(=O)C(CC2CCCCCCCCCCC2=O)C(=O)N1 (stereo not given) | > 100 µM
18 | Cc1cc(NCc2ccccc2)c2ccccc2[n+]1CCCCCCCCCC[n+]1c(C)cc(NCc2ccccc2)c2ccccc21 | > 100 µM
19 | Nc1ccc(S(=O)(=O)Nc2nccs2)cc1 | > 100 µM
20 | CCOc1ccc(/C=C2/C(=O)N=C(NC(C)=O)N2C)cc1 | > 100 µM

Each molecule was assayed on SF-295 CNS (assay: NCI-60 cell line screen, 48 h).

Row | Structure (SMILES) | TGI
21 | Cc1nc2sc3ccccc3n2c(=O)c1N=Nc1ccc(Cl)cc1 | > 100 µM
22 | O=C1O[C@H](c2ccc3c(c2)OCO3)[C@H]2CO[C@@H](c3ccc4c(c3)OCO4)[C@@H]12 | > 100 µM
23 | Cc1ccc2c(c1)C(=O)C1(C2)Cc2cccc(C)c2C1=O (stereo not given) | > 100 µM
24 | O=C1NC(=O)C(CC2CCCCCCCCCCC2=O)C(=O)N1 (stereo not given) | > 100 µM
25 | Cc1cc(NCc2ccccc2)c2ccccc2[n+]1CCCCCCCCCC[n+]1c(C)cc(NCc2ccccc2)c2ccccc21 | 2.49 µM
26 | Nc1ccc(S(=O)(=O)Nc2nccs2)cc1 | > 100 µM
27 | CCOc1ccc(/C=C2/C(=O)N=C(NC(C)=O)N2C)cc1 | > 100 µM

These molecules were tested on MDA-MB-231 breast (assay: NCI-60 cell line screen, 48 h).

Row | Structure (SMILES) | TGI
28 | Cc1nc2sc3ccccc3n2c(=O)c1N=Nc1ccc(Cl)cc1 | > 100 µM
29 | O=C1O[C@H](c2ccc3c(c2)OCO3)[C@H]2CO[C@@H](c3ccc4c(c3)OCO4)[C@@H]12 | > 100 µM
30 | Cc1ccc2c(c1)C(=O)C1(C2)Cc2cccc(C)c2C1=O (stereo not given) | > 100 µM
31 | O=C1NC(=O)C(CC2CCCCCCCCCCC2=O)C(=O)N1 (stereo not given) | > 100 µM
32 | Cc1cc(NCc2ccccc2)c2ccccc2[n+]1CCCCCCCCCC[n+]1c(C)cc(NCc2ccccc2)c2ccccc21 | 1.74 µM
33 | Nc1ccc(S(=O)(=O)Nc2nccs2)cc1 | > 100 µM
34 | CCOc1ccc(/C=C2/C(=O)N=C(NC(C)=O)N2C)cc1 | > 100 µM

What follows are molecules tested on CCRF-CEM leukemia (assay: NCI-60 cell line screen, 48 h).

Row | Structure (SMILES) | TGI
35 | Cc1nc2sc3ccccc3n2c(=O)c1N=Nc1ccc(Cl)cc1 | > 100 µM
36 | Cc1ccc2c(c1)C(=O)C1(C2)Cc2cccc(C)c2C1=O (stereo not given) | > 100 µM
37 | O=C1NC(=O)C(CC2CCCCCCCCCCC2=O)C(=O)N1 (stereo not given) | > 100 µM
38 | Nc1ccc(S(=O)(=O)Nc2nccs2)cc1 | > 100 µM

Each molecule was assayed on SK-MEL-5 melanoma (assay: NCI-60 cell line screen, 48 h).

Row | Structure (SMILES) | TGI
39 | Cc1nc2sc3ccccc3n2c(=O)c1N=Nc1ccc(Cl)cc1 | > 100 µM
40 | O=C1O[C@H](c2ccc3c(c2)OCO3)[C@H]2CO[C@@H](c3ccc4c(c3)OCO4)[C@@H]12 | > 100 µM
41 | Cc1ccc2c(c1)C(=O)C1(C2)Cc2cccc(C)c2C1=O (stereo not given) | > 100 µM
42 | O=C1NC(=O)C(CC2CCCCCCCCCCC2=O)C(=O)N1 (stereo not given) | > 100 µM
43 | Cc1cc(NCc2ccccc2)c2ccccc2[n+]1CCCCCCCCCC[n+]1c(C)cc(NCc2ccccc2)c2ccccc21 | 0.638 µM
44 | Nc1ccc(S(=O)(=O)Nc2nccs2)cc1 | > 100 µM
45 | CCOc1ccc(/C=C2/C(=O)N=C(NC(C)=O)N2C)cc1 | > 100 µM

The molecules below were run on K-562 leukemia (assay: NCI-60 cell line screen, 48 h).

Row | Structure (SMILES) | TGI
46 | Cc1nc2sc3ccccc3n2c(=O)c1N=Nc1ccc(Cl)cc1 | > 100 µM
47 | O=C1O[C@H](c2ccc3c(c2)OCO3)[C@H]2CO[C@@H](c3ccc4c(c3)OCO4)[C@@H]12 | > 100 µM
48 | Cc1ccc2c(c1)C(=O)C1(C2)Cc2cccc(C)c2C1=O (stereo not given) | > 100 µM
49 | Nc1ccc(S(=O)(=O)Nc2nccs2)cc1 | > 100 µM

These molecules were tested on CAKI-1 renal (assay: NCI-60 cell line screen, 48 h).

Row | Structure (SMILES) | TGI
50 | Cc1nc2sc3ccccc3n2c(=O)c1N=Nc1ccc(Cl)cc1 | > 100 µM
51 | O=C1O[C@H](c2ccc3c(c2)OCO3)[C@H]2CO[C@@H](c3ccc4c(c3)OCO4)[C@@H]12 | > 100 µM
52 | Cc1ccc2c(c1)C(=O)C1(C2)Cc2cccc(C)c2C1=O (stereo not given) | 32.4 µM
53 | O=C1NC(=O)C(CC2CCCCCCCCCCC2=O)C(=O)N1 (stereo not given) | > 100 µM
54 | Cc1cc(NCc2ccccc2)c2ccccc2[n+]1CCCCCCCCCC[n+]1c(C)cc(NCc2ccccc2)c2ccccc21 | 5.48 µM
55 | CCOc1ccc(/C=C2/C(=O)N=C(NC(C)=O)N2C)cc1 | > 100 µM

These molecules were tested on MDA-N (assay: NCI-60 cell line screen, 48 h).

Row | Structure (SMILES) | TGI
56 | Cc1nc2sc3ccccc3n2c(=O)c1N=Nc1ccc(Cl)cc1 | > 100 µM
57 | O=C1O[C@H](c2ccc3c(c2)OCO3)[C@H]2CO[C@@H](c3ccc4c(c3)OCO4)[C@@H]12 | > 100 µM
58 | Cc1ccc2c(c1)C(=O)C1(C2)Cc2cccc(C)c2C1=O (stereo not given) | > 100 µM
59 | O=C1NC(=O)C(CC2CCCCCCCCCCC2=O)C(=O)N1 (stereo not given) | > 100 µM
60 | Cc1cc(NCc2ccccc2)c2ccccc2[n+]1CCCCCCCCCC[n+]1c(C)cc(NCc2ccccc2)c2ccccc21 | 1.4 µM
61 | Nc1ccc(S(=O)(=O)Nc2nccs2)cc1 | > 100 µM
62 | CCOc1ccc(/C=C2/C(=O)N=C(NC(C)=O)N2C)cc1 | > 100 µM

These molecules were tested on HS 578T breast (assay: NCI-60 cell line screen, 48 h).

Row | Structure (SMILES) | TGI
63 | Cc1nc2sc3ccccc3n2c(=O)c1N=Nc1ccc(Cl)cc1 | > 100 µM
64 | O=C1O[C@H](c2ccc3c(c2)OCO3)[C@H]2CO[C@@H](c3ccc4c(c3)OCO4)[C@@H]12 | > 100 µM
65 | Cc1ccc2c(c1)C(=O)C1(C2)Cc2cccc(C)c2C1=O (stereo not given) | > 100 µM
66 | O=C1NC(=O)C(CC2CCCCCCCCCCC2=O)C(=O)N1 (stereo not given) | > 100 µM
67 | Cc1cc(NCc2ccccc2)c2ccccc2[n+]1CCCCCCCCCC[n+]1c(C)cc(NCc2ccccc2)c2ccccc21 | 11.6 µM

The molecules below were run on SK-MEL-28 melanoma (assay: NCI-60 cell line screen, 48 h).

Row | Structure (SMILES) | TGI
68 | Cc1nc2sc3ccccc3n2c(=O)c1N=Nc1ccc(Cl)cc1 | > 100 µM
69 | O=C1O[C@H](c2ccc3c(c2)OCO3)[C@H]2CO[C@@H](c3ccc4c(c3)OCO4)[C@@H]12 | > 100 µM
70 | Cc1ccc2c(c1)C(=O)C1(C2)Cc2cccc(C)c2C1=O (stereo not given) | > 100 µM
71 | O=C1NC(=O)C(CC2CCCCCCCCCCC2=O)C(=O)N1 (stereo not given) | > 100 µM
72 | Cc1cc(NCc2ccccc2)c2ccccc2[n+]1CCCCCCCCCC[n+]1c(C)cc(NCc2ccccc2)c2ccccc21 | 2.16 µM
73 | Nc1ccc(S(=O)(=O)Nc2nccs2)cc1 | > 100 µM
74 | CCOc1ccc(/C=C2/C(=O)N=C(NC(C)=O)N2C)cc1 | > 100 µM

The molecules below were run on M14 melanoma (assay: NCI-60 cell line screen, 48 h).

Row | Structure (SMILES) | TGI
75 | Cc1nc2sc3ccccc3n2c(=O)c1N=Nc1ccc(Cl)cc1 | > 100 µM
76 | O=C1O[C@H](c2ccc3c(c2)OCO3)[C@H]2CO[C@@H](c3ccc4c(c3)OCO4)[C@@H]12 | > 100 µM
77 | Cc1ccc2c(c1)C(=O)C1(C2)Cc2cccc(C)c2C1=O (stereo not given) | > 100 µM
78 | O=C1NC(=O)C(CC2CCCCCCCCCCC2=O)C(=O)N1 (stereo not given) | > 100 µM
79 | Cc1cc(NCc2ccccc2)c2ccccc2[n+]1CCCCCCCCCC[n+]1c(C)cc(NCc2ccccc2)c2ccccc21 | 3.22 µM
80 | Nc1ccc(S(=O)(=O)Nc2nccs2)cc1 | > 100 µM
81 | CCOc1ccc(/C=C2/C(=O)N=C(NC(C)=O)N2C)cc1 | > 100 µM

Each molecule was assayed on HL-60(TB) leukemia (assay: NCI-60 cell line screen, 48 h).

Row | Structure (SMILES) | TGI
82 | Cc1nc2sc3ccccc3n2c(=O)c1N=Nc1ccc(Cl)cc1 | > 100 µM
83 | O=C1O[C@H](c2ccc3c(c2)OCO3)[C@H]2CO[C@@H](c3ccc4c(c3)OCO4)[C@@H]12 | > 100 µM
84 | Cc1ccc2c(c1)C(=O)C1(C2)Cc2cccc(C)c2C1=O (stereo not given) | > 100 µM
85 | O=C1NC(=O)C(CC2CCCCCCCCCCC2=O)C(=O)N1 (stereo not given) | > 100 µM
86 | Cc1cc(NCc2ccccc2)c2ccccc2[n+]1CCCCCCCCCC[n+]1c(C)cc(NCc2ccccc2)c2ccccc21 | 1.19 µM
87 | Nc1ccc(S(=O)(=O)Nc2nccs2)cc1 | > 100 µM
88 | CCOc1ccc(/C=C2/C(=O)N=C(NC(C)=O)N2C)cc1 | 71.7 µM

These molecules were tested on RXF 393 renal (assay: NCI-60 cell line screen, 48 h).

Row | Structure (SMILES) | TGI
89 | Cc1nc2sc3ccccc3n2c(=O)c1N=Nc1ccc(Cl)cc1 | > 100 µM
90 | O=C1O[C@H](c2ccc3c(c2)OCO3)[C@H]2CO[C@@H](c3ccc4c(c3)OCO4)[C@@H]12 | > 100 µM
91 | Cc1ccc2c(c1)C(=O)C1(C2)Cc2cccc(C)c2C1=O (stereo not given) | > 100 µM
92 | O=C1NC(=O)C(CC2CCCCCCCCCCC2=O)C(=O)N1 (stereo not given) | > 100 µM
93 | Cc1cc(NCc2ccccc2)c2ccccc2[n+]1CCCCCCCCCC[n+]1c(C)cc(NCc2ccccc2)c2ccccc21 | 12.9 µM
94 | Nc1ccc(S(=O)(=O)Nc2nccs2)cc1 | > 100 µM
95 | CCOc1ccc(/C=C2/C(=O)N=C(NC(C)=O)N2C)cc1 | > 100 µM
